pIC50: −log10 of the molar value. Read-outs that look alike come from different tables or passages of the source. Where a SMILES comes first, the peptide text is derived from it. [ ]: non-standard residue; d: D form. The star is where a group is joined. X2 = NC(=NC(=O)c1nc(Cl)c(N)nc1N)NCCCCN1C(=O)CC(*)C1=O; Hyp = O=C(O)[C@@H]1C[C@@H](O)CN1; Ahx = NCCCCCC(=O)O
Molecular target: T1, ENaC (Homo sapiens, UniProt P37088+P51168+P51170)
T1 construct: Primary NHBE cells were isolated from bronchi of normal healthy patients; endogenous in cells; host or cells: primary normal human bronchial epithelial (NHBE) cells, differentiated at air-liquid interface
T1 sequence (P37088 1-669): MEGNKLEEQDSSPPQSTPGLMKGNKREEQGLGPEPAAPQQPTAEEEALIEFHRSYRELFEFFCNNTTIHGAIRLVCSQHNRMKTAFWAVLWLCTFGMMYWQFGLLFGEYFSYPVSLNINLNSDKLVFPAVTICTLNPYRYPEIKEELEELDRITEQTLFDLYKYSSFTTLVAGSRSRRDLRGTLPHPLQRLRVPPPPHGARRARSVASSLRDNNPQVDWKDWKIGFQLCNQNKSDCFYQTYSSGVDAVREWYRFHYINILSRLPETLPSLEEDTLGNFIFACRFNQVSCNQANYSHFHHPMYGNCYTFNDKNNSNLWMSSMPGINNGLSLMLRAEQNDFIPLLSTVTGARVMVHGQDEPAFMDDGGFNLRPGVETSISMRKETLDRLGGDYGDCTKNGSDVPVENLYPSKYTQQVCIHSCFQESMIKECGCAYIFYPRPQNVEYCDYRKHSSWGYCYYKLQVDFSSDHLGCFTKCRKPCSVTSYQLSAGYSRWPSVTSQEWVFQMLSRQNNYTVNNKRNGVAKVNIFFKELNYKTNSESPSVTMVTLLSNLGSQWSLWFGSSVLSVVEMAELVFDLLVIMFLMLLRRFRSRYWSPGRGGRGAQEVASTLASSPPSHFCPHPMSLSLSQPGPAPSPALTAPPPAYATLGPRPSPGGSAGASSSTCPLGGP
T1 sequence (P51168 1-640): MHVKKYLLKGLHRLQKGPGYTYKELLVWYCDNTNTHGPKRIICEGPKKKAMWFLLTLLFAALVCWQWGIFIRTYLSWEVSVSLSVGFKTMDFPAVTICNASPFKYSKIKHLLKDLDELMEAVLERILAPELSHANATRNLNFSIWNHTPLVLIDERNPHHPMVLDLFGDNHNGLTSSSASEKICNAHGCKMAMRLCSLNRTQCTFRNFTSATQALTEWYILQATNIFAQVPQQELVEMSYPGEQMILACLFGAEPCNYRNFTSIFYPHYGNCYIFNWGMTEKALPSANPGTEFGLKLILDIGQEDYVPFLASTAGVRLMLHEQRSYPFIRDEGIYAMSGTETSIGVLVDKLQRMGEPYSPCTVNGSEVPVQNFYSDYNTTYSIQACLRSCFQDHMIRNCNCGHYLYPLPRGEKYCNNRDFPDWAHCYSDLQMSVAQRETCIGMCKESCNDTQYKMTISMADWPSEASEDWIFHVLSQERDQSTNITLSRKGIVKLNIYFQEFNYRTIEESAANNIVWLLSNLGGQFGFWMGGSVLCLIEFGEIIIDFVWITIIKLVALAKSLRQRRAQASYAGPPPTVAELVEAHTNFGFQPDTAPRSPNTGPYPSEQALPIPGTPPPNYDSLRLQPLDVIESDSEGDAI
T1 sequence (P51170 1-649): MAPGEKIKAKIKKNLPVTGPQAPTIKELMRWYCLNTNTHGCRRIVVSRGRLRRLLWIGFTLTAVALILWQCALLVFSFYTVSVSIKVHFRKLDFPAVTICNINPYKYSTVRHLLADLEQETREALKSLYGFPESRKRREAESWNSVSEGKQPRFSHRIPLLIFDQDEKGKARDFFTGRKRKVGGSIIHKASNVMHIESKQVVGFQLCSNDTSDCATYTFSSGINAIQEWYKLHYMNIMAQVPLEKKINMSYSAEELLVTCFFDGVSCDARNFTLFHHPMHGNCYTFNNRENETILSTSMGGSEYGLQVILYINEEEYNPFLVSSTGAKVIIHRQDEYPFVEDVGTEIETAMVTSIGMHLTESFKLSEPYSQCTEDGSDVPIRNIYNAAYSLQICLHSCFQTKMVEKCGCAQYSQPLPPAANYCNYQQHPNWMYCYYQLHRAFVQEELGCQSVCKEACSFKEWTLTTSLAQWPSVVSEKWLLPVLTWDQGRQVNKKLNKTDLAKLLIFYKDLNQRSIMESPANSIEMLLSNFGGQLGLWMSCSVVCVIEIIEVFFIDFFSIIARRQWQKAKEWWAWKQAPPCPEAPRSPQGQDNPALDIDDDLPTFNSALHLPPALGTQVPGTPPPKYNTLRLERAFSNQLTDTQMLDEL
Assay: ENaC inhibition in NHBE cell monolayers, Ussing epithelial voltage clamp (short circuit current)
Assay type: cell-based
Conditions: for fold more potent than amiloride (ENaC inhibition): relative to amiloride IC50
Procedure: The objective of this study was to measure the ability of the illustrative conjugates to modulate ion transport function of ENAC in normal human bronchial epithelial (NHBE) cell monolayers. Sodium transport function of ENAC expressed in NHBE monolayers was evaluated using an Ussing epithelial voltage clamp apparatus. See, Hirsh et al., J. Pharmacol. Exp. Ther. 2008; 325:77-88, hereby incorporated by reference in its entirety.
Primary NHBE cells were isolated from bronchi of normal healthy patients, expanded in Lonza media (BEGM™ BulletKit™), and plated on Snapwell™ filters to form an epithelium. Cells on Snapwell™ inserts were grown for at least 21 days in Vertex Differentiation media and exposed to an air-liquid interface to promote differentiation. At least one day before the assay, mucous overlaying the apical surface was removed from the inserts by incubating the apical surface for about 30 minutes with ≥200 μL of differentiation media followed by aspiration of the mucous film and media.
The NHBE cell monolayers grown on Snapwell™ filter inserts were transferred to Physiologic Instruments Ussing recording chambers (Physiologic Instruments, Inc., San Diego, CA) and superfused with HB-PS. One or more 6-channel or 8-channel Physiologic Instruments VCC MC6 or VCC MC8 epithelial voltage clamps were used in combination to record short circuit current (ISC) from up to 24 inserts simultaneously. Air was used to operate the bubble lifts to rapidly circulate solutions in each Ussing chamber half and to aerate the monolayers.
Inserts were voltage clamped at 0 m V to record the ISC. Bumetanide (20 μM) was added to the basolateral side of all inserts. Test conjugates prepared as DMSO (Sigma-Aldrich) stocks were added cumulatively and sequentially to the apical Ussing chamber halves with at least 3 minutes between each addition.
Time and volume matched additions of DMSO to the basolateral side of the test conjugate treated inserts and both sides of the vehicle treated inserts was made to maintain osmotic balance across the epithelia. Transepithelial resistance was monitored with small voltage steps. The assay was performed at 35±2° C.
ENaC current at each test conjugate concentration was calculated as the peak current change produced by each test conjugate treated insert minus the mean current change produced by the corresponding DMSO additions to time-matched vehicle controls inserts. Cumulative difference data was fit to a Hill equation of the form: […]
Where IEnaC is the ISC peak difference current measured at each test conjugate concentration [Test].

[1] = NHBE cell monolayers, Ussing chamber, apical addition, 35±2° C., read-out: IC50 for the ENaC inhibition
[2] = NHBE cell monolayers, Ussing chamber, apical addition, 35±2° C.

CC[C@H](C)[C@H](NC(=O)[C@H](Cc1ccc(O)cc1)NC(=O)[C@@H]1C[C@@H](O)CN1C(=O)[C@H](C)NC(=O)[C@H](CC(C)C)NC(=O)[C@H](C)NC(=O)CCCCCNC(=O)[C@H](CCCCNC(N)=NC(=O)c1nc(Cl)c(N)nc1N)NC(C)=O)C(N)=O [Conjugate 1, Ac-(AmilAC)K-(Ahx)-ALA(Hyp)YI-NH2] (HELM PEPTIDE1{[ac].[NC(=NC(=O)c1nc(Cl)c(N)nc1N)NCCCC[C@H](N[*:1])C(=O)[*:2]].[O=C(CCCCCN[*:1])[*:2]].A.L.A.[Hyp].Y.I.[am]}$$$$V2.0)
pIC50 [1]: 6.54

CC(=O)N[C@@H](CCCCNC(N)=NC(=O)c1nc(Cl)c(N)nc1N)C(=O)NCCCCCC(=O)N[C@@H](C)C(=O)N[C@@H](CO)C(=O)N[C@@H](Cc1c[nH]cn1)C(=O)N[C@@H](CC(C)C)C(=O)N[C@@H](CCCNC(=N)N)C(=O)N[C@@H](CCCCN)C(=O)N[C@@H](CC(C)C)C(=O)N[C@@H](CCCNC(=N)N)C(=O)N[C@@H](CCCCN)C(=O)N[C@@H](CCCNC(=N)N)C(=O)N[C@@H](CC(C)C)C(=O)N[C@@H](CC(C)C)C(N)=O [Conjugate 2] (HELM PEPTIDE1{[ac].[NC(=NC(=O)c1nc(Cl)c(N)nc1N)NCCCC[C@H](N[*:1])C(=O)[*:2]].[O=C(CCCCCN[*:1])[*:2]].A.S.H.L.R.K.L.R.K.R.L.L.[am]}$$$$V2.0)
pIC50 [1]: 7.10

CC(=O)N[C@@H](CCCCNC(N)=NC(=O)c1nc(Cl)c(N)nc1N)C(=O)NCCCCCC(=O)N[C@H](C(=O)N[C@@H](CO)C(=O)N[C@@H](CCCCN)C(=O)N[C@@H](CCCNC(=N)N)C(=O)N[C@@H](CCCNC(=N)N)C(N)=O)C(C)C [Conjugate 3, Ac-(AmilAC)K-(Ahx)-VSKRR-NH2] (HELM PEPTIDE1{[ac].[NC(=NC(=O)c1nc(Cl)c(N)nc1N)NCCCC[C@H](N[*:1])C(=O)[*:2]].[O=C(CCCCCN[*:1])[*:2]].V.S.K.R.R.[am]}$$$$V2.0)
pIC50 [1]: 7.30
fold more potent than amiloride (ENaC inhibition): about 10 fold

CC[C@H](C)[C@H](NC(=O)[C@H](Cc1ccc(O)cc1)NC(=O)[C@@H]1C[C@@H](O)CN1C(=O)[C@H](C)NC(=O)[C@H](CC(C)C)NC(=O)[C@H](C)NC(=O)CCCCCNC(=O)[C@H](CCCCn1cc(CCCCCNC(N)=NC(=O)c2nc(Cl)c(N)nc2N)nn1)NC(C)=O)C(N)=O [Conjugate 4, Ac-(AmilCC1-AzK)-Ahx-ALA(Hyp)YI-NH2]
pIC50 [1]: 6.62

CC(=O)N[C@@H](CCCCn1cc(CCCCCNC(N)=NC(=O)c2nc(Cl)c(N)nc2N)nn1)C(=O)NCCCCCC(=O)N[C@@H](C)C(=O)N[C@@H](CO)C(=O)N[C@@H](Cc1c[nH]cn1)C(=O)N[C@@H](CC(C)C)C(=O)N[C@@H](CCCNC(=N)N)C(=O)N[C@@H](CCCCN)C(=O)N[C@@H](CC(C)C)C(=O)N[C@@H](CCCNC(=N)N)C(=O)N[C@@H](CCCCN)C(=O)N[C@@H](CCCNC(=N)N)C(=O)N[C@@H](CC(C)C)C(=O)N[C@@H](CC(C)C)C(N)=O [Conjugate 5]
pIC50: 7.52
fold more potent than amiloride (ENaC inhibition): about 10 fold

CC(=O)N[C@@H](CCCCn1cc(CCCCCNC(N)=NC(=O)c2nc(Cl)c(N)nc2N)nn1)C(=O)NCCCCCC(=O)N[C@H](C(=O)N[C@@H](CO)C(=O)N[C@@H](CCCCN)C(=O)N[C@@H](CCCNC(=N)N)C(=O)N[C@@H](CCCNC(=N)N)C(N)=O)C(C)C [Conjugate 6, Ac-(AmilCC1-AzK)-Ahx-VSKRR-NH2]
pIC50 [1]: 7.05

CC[C@H](C)[C@H](NC(=O)[C@H](Cc1ccc(O)cc1)NC(=O)[C@@H]1C[C@@H](O)CN1C(=O)[C@H](C)NC(=O)[C@H](CC(C)C)NC(=O)[C@H](C)NC(=O)CCCCCNC(=O)[C@H](Cc1cn(CCCCNC(N)=NC(=O)c2nc(Cl)c(N)nc2N)nn1)NC(C)=O)C(N)=O [Conjugate 7, Ac-(AmilCC2-Pgy)-Ahx-ALA(Hyp)YI-NH2]
pIC50 [1]: 6.10

CC[C@H](C)[C@H](NC(=O)[C@H](Cc1ccc(O)cc1)NC(=O)[C@@H]1C[C@@H](O)CN1C(=O)[C@H](C)NC(=O)[C@H](CC(C)C)NC(=O)[C@H](C)NC(=O)CCCCCNC(=O)[C@H](CSC1CC(=O)N(CCCCNC(N)=NC(=O)c2nc(Cl)c(N)nc2N)C1=O)NC(C)=O)C(N)=O (some centres unmarked) [Conjugate 10, Ac-(AmilTC-C)-Ahx-ALA(Hyp)YI-NH2] (Ac-C(X2)[Ahx]ALA[Hyp]YI-NH2)
pIC50: 6.31

CC(=O)N[C@@H](CSC1CC(=O)N(CCCCNC(N)=NC(=O)c2nc(Cl)c(N)nc2N)C1=O)C(=O)NCCCCCC(=O)N[C@@H](C)C(=O)N[C@@H](CO)C(=O)N[C@@H](Cc1c[nH]cn1)C(=O)N[C@@H](CC(C)C)C(=O)N[C@@H](CCCNC(=N)N)C(=O)N[C@@H](CCCCN)C(=O)N[C@@H](CC(C)C)C(=O)N[C@@H](CCCNC(=N)N)C(=O)N[C@@H](CCCCN)C(=O)N[C@@H](CCCNC(=N)N)C(=O)N[C@@H](CC(C)C)C(=O)N[C@@H](CC(C)C)C(N)=O (some centres unmarked) [Conjugate 11] (Ac-C(X2)[Ahx]ASHLRKLRKRLL-NH2)
pIC50: 7.15

CC(=O)N[C@@H](CSC1CC(=O)N(CCCCNC(N)=NC(=O)c2nc(Cl)c(N)nc2N)C1=O)C(=O)NCCCCCC(=O)N[C@H](C(=O)N[C@@H](CO)C(=O)N[C@@H](CCCCN)C(=O)N[C@@H](CCCNC(=N)N)C(=O)N[C@@H](CCCNC(=N)N)C(N)=O)C(C)C (some centres unmarked) [Conjugate 12, Ac-(AmilTC-C)-Ahx-VSKRR-NH2] (Ac-C(X2)[Ahx]VSKRR-NH2)
pIC50 [1]: 7.10

Ac-K-(Ahx)-ALA(Hyp)YI-NH2 (Ac-K[Ahx]ALA[Hyp]YI-NH2) [Peptide only Control 1, Peptide only control, reference compound]
IC50 for the ENaC inhibition [2]: Did not inhibit

Ac-K-(Ahx)-ASHLRKLRKRLL-NH2 (Ac-K[Ahx]ASHLRKLRKRLL-NH2) [Peptide only Control 2, Peptide only control, reference compound]
IC50 for the ENaC inhibition [2]: Did not inhibit

From US20240374585A1, “EPITHELIAL SODIUM CHANNEL (ENAC) INHIBITOR CONJUGATES AND METHODS FOR USE THEREOF” (Lung Therapeutics, Inc., priority 2021, published 2024)
